According to US20190142971A1, “FORMULATION AND DELIVERY OF MODIFIED NUCLEOSIDE, NUCLEOTIDE, AND NUCLEIC ACID COMPOSITIONS” (ModernaTX, Inc., priority 2013, published 2019):

Tests used:
[1] = test system: mice; assay: Example 39: Factor IX mmRNA IM in mice, serum Factor IX at 13 hours; type: in vivo; settings: 2×100 ug/mouse IM
Procedure: Human Factor IX mmRNA (Gen1; fully modified 5-methycytosine and pseudouridine) formulated in formulation buffer was delivered to mice via intramuscular injection.
The mice were bled at 13 hours after the intramuscular injection to determine the concentration of human the polypeptide in serum in pg/mL.

[2] = test system: Balb-C mice; assay: Example 79: fibrin sealant (Tisseel) with luciferase mRNA SC in mice, total flux (Tables 119, 120); type: in vivo; settings: subcutaneous
Procedure: The thrombin and fibrinogen components were loaded separately into a dual barreled syringe. […] The injection of fibrinogen and thrombin was done simultaneously using the dual-barreled syringe. The subcutaneous injection of luciferase was done 15 minutes after the fibrinogen/thrombin injection to allow the fibrin hydrogel to polymerize (Tisseel+Luciferase group). A control group of untreated mice were also evaluated. The mice were imaged at 5 hours and 24 hours. Twenty minutes prior to imaging, mice were injected intraperitoneally with a D-luciferin solution at 150 mg/kg. Animals were then anesthetized and images were acquired with an IVIS Lumina II imaging system (Perkin Elmer). Bioluminescence was measured as total flux (photons/second) of the entire mouse.

[3] = test system: Balb-C mice; assay: Example 108: luciferase mRNA IM with electroporation, total flux (Tables 174-176); type: in vivo; settings: PBS, IM 2.5 mg/kg
Procedure: The mice of Group 2 were treated with electroporation (EP) using the […]™ instrument (Harvard Apparatus/BTX®, Holliston, Mass.) immediately after administration of luciferase.
[…] Twenty minutes prior to imaging, the mice were injected intraperitoneally with a D-luciferin solution at 150 mg/kg. Animals were then anesthetized and images were acquired with an IVIS Lumina II imaging system (Perkin Elmer). Bioluminescence was measured as total flux (photons/second) of the entire mouse.

[4] = test system: Balb-C mice; assay: Example 117: repeat dose luciferase KC2 LNP IM, IV, live and tissue imaging (Tables 192-200); type: in vivo; settings: luciferase mRNA in PBS, IM 2.50 mg/kg
Procedure: “TM-2” means the groups were administered with 2 doses, administered 24 hours apart, “IV” means intravenous administration, “TV-1” means the groups were administered a single dose tail vein injection and “TV-2” means the groups were administered with 2 doses, administered 7 days apart. 2 groups of untreated Balb-C mice (n=3) were also evaluated. Groups 1, 3 and 7 were injected in the right leg and administration was repeated but into the left leg with 24 hours between injections. Groups 2, 4, and 9 were administered the mRNA in the right leg followed by repeat administration in the right leg with 24 hours between injections for Group 2 and 7 days between injections for Groups 4 and 9.
The final lipid molar ratio ranges of DLin-KC2-DMA, DSPC, cholesterol and PEG-DMG for the KC2 LNP are outlined in Table 194. The weight ratio of total lipid to mRNA was 20:1, the mean size was 95 nm (PDI: 0.11), the zeta at pH 7.4 was −1.0 mV and the encapsulation (RiboGreen) was essentially 100%.
Live imaging mice were imaged at 8 hours post-administration of each dose of luciferase modified mRNA and tissue imaging mice imaged 8 post-administration of the final dose of luciferase modified mRNA. Twenty minutes prior to imaging, the mice were injected intraperitoneally with a D-luciferin solution at 150 mg/kg. Animals were then anesthetized and images were acquired with an IVIS Lumina II imaging system (Perkin Elmer). For the tissue imaging mice (Groups 6-9), the mice were dissected twenty minutes after the D-luciferin injection and organs and tissue were subsequently imaged (muscle around injection site, liver and spleen for Groups 6 and 7 and were subsequently imaged the liver and spleen for Groups 8 and 9). Bioluminescence was measured as total flux (photons/second) of the mid-section and the entire mouse (IV administration), the injection site (IM administration), or the entire organ (tissue imaging).

[5] = test system: C57BL/6; assay: Example 115: human EPO mRNA electroporation multi-dose, serum EPO (Table 185); type: in vivo, mice; settings: human EPO mRNA in PBS, IM 0.2 mg/kg per dose with EP
Procedure: Serum was collected from the mice at 24 hours post the first, second, third and fourth doses.

[6] = test system: C57BL/6; assay: Example 116: mouse EPO mRNA in mannitol multi-dose, serum EPO (Table 186); type: in vivo, mice; settings: mouse EPO mRNA in 5% isotonic Mannitol, IM 2.5 mg/kg per dose
Procedure: Serum was collected from the mice at 24 hours post the second, fourth, sixth and eighth doses.

[7] = test system: mice; assay: Example 40: multi-site IM/SC G-CSF mRNA in mice, neutrophil count (Table 65); type: in vivo; settings: intramuscular, day 3
Procedure: Injection of four doses or 2×50 ug (two sites) daily for three days (24 hrs interval) was performed. The fourth dose was administered 6 hrs before blood collection and CBC analysis. […] The mice were bled at 72 hours after the first mRNA injection (6 hours after the last mRNA dose) to determine the effect of mRNA-encoded human G-CSF on the neutrophil count. The dosing regimen is shown in Table 65 as are the resulting neutrophil counts (thousands/uL). In Table 65, an asterisks (*) indicate statistical significance at p<0.05.

[8] = Example 61: storage stability of G-CSF mRNA, gel electrophoresis (Bio-Rad EXPERION); type: physicochemical
Procedure: Stability experiments were conducted to obtain a better understanding of storage conditions to retain the integrity of modified RNA. […] After the mRNA had been stored for 0 hours, 2 hours, 6 hours, 24 hours, 48 hours, 5 days and 14 days, the mRNA was analyzed by gel electrophoresis using a Bio-Rad EXPERION™ system. The modified, unmodified and lipoplexed G-CSF mRNA was also stored in RNASTABLE® (Biomatrica, Inc. San Diego, Calif.) at 40° C. or water at −80° C. or 40° C. for 35 days before being analyzed by gel electrophoresis.
mRNA samples stored at 4° C., 25° C. and 37° C. were stored in 1×TE buffer or the formulation buffer (150 mM sodium chloride, 2 mM calcium chloride, 2 mM phosphate, 0.5 mM EDTA at a pH of 6.5). The mRNA stored at 4° C. was stable to at least 60 days in both the TE and formulation buffer. At 25° C. the mRNA in formulation buffer was stable out to 14 days and the TE buffer was stable out to at least 6 days. Storage of mRNA in the formulation buffer at 37° C. was stable to 6 days compared to the TE buffer which was stable only until 4 days.

[9] = serum 24 hours post fourth dose
[10] = serum 24 hours post second dose

## Luciferase: luciferase mRNA, SEQ ID NO: 14, Cap1, fully modified with 5-methylcytosine and pseudouridine
[1]
  Factor IX in serum: less than 100 pg/mL
[2]; 5 Hours
  Total Flux: 9.94E+05 p/s
[2]; 24 Hours
  Total Flux: 7.44E+05 p/s
[3]; Group 1, no EP, 3 Hours
  Total Flux (photons/s): 2.57E+07 photons/s
[3]; Group 1, no EP, 24 Hours
  Total Flux (photons/s): 3.81E+07 photons/s
[3]; Group 1, no EP, 48 Hours
  Total Flux (photons/s): 1.24E+07 photons/s
[3]; Group 1, no EP, 72 Hours
  Total Flux (photons/s): 5.69E+06 photons/s
[3]; Group 1, no EP, 168 Hours
  Total Flux (photons/s): 1.48E+06 photons/s
[3]; Group 1, no EP, 240 Hours
  Total Flux (photons/s): 6.50E+05 photons/s
[3]; Group 1, no EP, 360 Hours
  Total Flux (photons/s): 1.86E+05 photons/s
[3]; Group 1, no EP, 480 Hours
  Total Flux (photons/s): 6.65E+04 photons/s
[3]; Group 2, with EP, 24 Hours
  Total Flux (photons/s): 8.27E+07 photons/s
[3]; Group 2, with EP, 48 Hours
  Total Flux (photons/s): 7.06E+07 photons/s
[3]; Group 2, with EP, 72 Hours
  Total Flux (photons/s): 6.50E+07 photons/s
[3]; Group 2, with EP, 168 Hours
  Total Flux (photons/s): 1.81E+07 photons/s
[3]; Group 2, with EP, 240 Hours
  Total Flux (photons/s): 1.44E+07 photons/s
[3]; Group 2, with EP, 360 Hours
  Total Flux (photons/s): 3.98E+06 photons/s
[3]; Group 2, with EP, 480 Hours
  Total Flux (photons/s): 1.47E+06 photons/s
[3]; Group 2, with electroporation (EP), 3 Hours
  Total Flux (photons/s): 1.25E+07 photons/s
[4]; Dose 1, Dosed Right limb
  Expression (Flux (p/s)): 6.71E+06 p/s
[4]; Dose 1, Undosed Left limb
  Expression (Flux (p/s)): 2.28E+05 p/s
[4]; Dose 2, Dosed Left limb
  Expression (Flux (p/s)): 1.16E+07 p/s
[4]; Dose 2, Undosed Right limb
  Expression (Flux (p/s)): 2.44E+07 p/s

B1: EPO: modified mRNA encoding human erythropoietin, SEQ ID NO: 7, Cap1, fully modified with 5-methylcytosine and pseudouridine; LNP NPA-060-1 in Examples 17-22 (nucleic acid)
chain: GGGAAAUAAGAGAGAAAAGAAGAGUAAGAAGAAAUAUAAGAGCCACCAUGGGAGUGCACGAGUGUCCCGCGUGGUUGUGGUUGCUGCUGUCGCUCUUGAGCCUCCCACUGGGACUGCCUGUGCUGGGGGCACCACCCAGAUUGAUCUGCGACUCACGGGUACUUGAGAGGUACCUUCUUGAAGCCAAAGAAGCCGAAAACAUCACAACCGGAUGCGCCGAGCACUGCUCCCUCAAUGAGAACAUUACUGUACCGGAUACAAAGGUCAAUUUCUAUGCAUGGAAGAGAAUGGAAGUAGGACAGCAGGCCGUCGAAGUGUGGCAGGGGCUCGCGCUUUUGUCGGAGGCGGUGUUGCGGGGUCAGGCCCUCCUCGUCAACUCAUCACAGCCGUGGGAGCCCCUCCAACUUCAUGUCGAUAAAGCGGUGUCGGGGCUCCGCAGCUUGACGACGUUGCUUCGGGCUCUGGGCGCACAAAAGGAGGCUAUUUCGCCGCCUGACGCGGCCUCCGCGGCACCCCUCCGAACGAUCACCGCGGACACGUUUAGGAAGCUUUUUAGAGUGUACAGCAAUUUCCUCCGCGGAAAGCUGAAAUUGUAUACUGGUGAAGCGUGUAGGACAGGGGAUCGCUGAUAAGCUGCCUUCUGCGGGGCUUGCCUUCUGGCCAUGCCCUUCUUCUCUCCCUUGCACCUGUACCUCUUGGUCUUUGAAUAAAGCCUGAGUAGGAAG
modifications: Cap1, 5-methylcytosine, pseudouridine
[5]; serum 24 hours post first dose
  First Dose EPO: 9.5 pg/mL
[5]; [9]
  Fourth Dose EPO: 139.9 pg/mL
[5]; [10]
  Second Dose EPO: 27.9 pg/mL
[5]; serum 24 hours post third dose
  Third Dose EPO: 284.5 pg/mL
[6]; serum 24 hours post eighth dose
  Eighth Dose EPO: 239.3 pg/mL
[6]; [9]
  Fourth Dose EPO: 483.4 pg/mL
[6]; [10]
  Second Dose EPO: 334.7 pg/mL
[6]; serum 24 hours post sixth dose
  Sixth Dose EPO: 328.9 pg/mL

B2: G-CSF: modified mRNA encoding human G-CSF, SEQ ID NO: 4, Cap1, fully modified with 5-methylcytosine and pseudouridine; LNP-formulated in Examples 16-22 (nucleic acid)
chain: GGGAAAUAAGAGAGAAAAGAAGAGUAAGAAGAAAUAUAAGAGCCACCAUGGCCGGUCCCGCGACCCAAAGCCCCAUGAAACUUAUGGCCCUGCAGUUGCUGCUUUGGCACUCGGCCCUCUGGACAGUCCAAGAAGCGACUCCUCUCGGACCUGCCUCAUCGUUGCCGCAGUCAUUCCUUUUGAAGUGUCUGGAGCAGGUGCGAAAGAUUCAGGGCGAUGGAGCCGCACUCCAAGAGAAGCUCUGCGCGACAUACAAACUUUGCCAUCCCGAGGAGCUCGUACUGCUCGGGCACAGCUUGGGGAUUCCCUGGGCUCCUCUCUCGUCCUGUCCGUCGCAGGCUUUGCAGUUGGCAGGGUGCCUUUCCCAGCUCCACUCCGGUUUGUUCUUGUAUCAGGGACUGCUGCAAGCCCUUGAGGGAAUCUCGCCAGAAUUGGGCCCGACGCUGGACACGUUGCAGCUCGACGUGGCGGAUUUCGCAACAACCAUCUGGCAGCAGAUGGAGGAACUGGGGAUGGCACCCGCGCUGCAGCCCACGCAGGGGGCAAUGCCGGCCUUUGCGUCCGCGUUUCAGCGCAGGGCGGGUGGAGUCCUCGUAGCGAGCCACCUUCAAUCAUUUUUGGAAGUCUCGUACCGGGUGCUGAGACAUCUUGCGCAGCCGUGAAGCGCUGCCUUCUGCGGGGCUUGCCUUCUGGCCAUGCCCUUCUUCUCUCCCUUGCACCUGUACCUCUUGGUCUUUGAAUAAAGCCUGAGUAGGAAG
modifications: Cap1, 5-methylcytosine, pseudouridine
[7]
  increase in neutrophil count above control: four fold increase
[8]
  freeze/thaw cycles tolerated: 12 cycles
[8]; stored at 25° C., with or without lipoplex
  stable out to: 120 h
[8]; stored at 37° C.
  stable out to: 24 h
[8]; stored at 50° C.
  stable out to: 6 h
